Experimental data as given in ChEMBL document CHEMBL1132943, “Synthesis of B-ring homologated estradiol analogues that modulate tubulin polymerization and microtubule stability” (J Med Chem, 2000).

Experiments:
Cell line = experiment: Tested for cytotoxicities and mean graph midpoint (MGM) for growth inhibition of all 55 human cell lines; type: functional
Tubulin [1] = target: T1, Tubulin (Bos taurus, UniProt Q6B856+Q862F3); experiment: Inhibition of polymerization of purified bovine tubulin; type: functional
T1 sequence (Q6B856 whole entry): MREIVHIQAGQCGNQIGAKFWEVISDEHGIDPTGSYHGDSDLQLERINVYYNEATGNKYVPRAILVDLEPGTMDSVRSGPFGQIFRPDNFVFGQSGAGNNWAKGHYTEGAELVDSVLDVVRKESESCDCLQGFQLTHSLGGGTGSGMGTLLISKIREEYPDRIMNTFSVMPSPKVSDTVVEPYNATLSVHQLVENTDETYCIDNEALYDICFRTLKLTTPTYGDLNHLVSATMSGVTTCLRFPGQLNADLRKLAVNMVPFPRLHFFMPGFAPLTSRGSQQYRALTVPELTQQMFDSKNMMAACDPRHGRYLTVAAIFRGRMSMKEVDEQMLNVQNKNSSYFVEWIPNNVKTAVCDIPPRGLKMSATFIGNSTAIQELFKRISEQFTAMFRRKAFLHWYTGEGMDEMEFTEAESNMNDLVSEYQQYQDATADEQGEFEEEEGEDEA
T1 sequence (Q862F3 whole entry): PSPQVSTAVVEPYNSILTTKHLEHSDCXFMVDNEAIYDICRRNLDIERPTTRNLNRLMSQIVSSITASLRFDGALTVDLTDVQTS

Tubulin (Bos taurus) [2] = target: T2, Tubulin (Bos taurus) (UniProt Q6B856+Q862L2+Q862F3); experiment: Compound was evaluated for inhibition of colchicine binding to tubulin in experiment I.; type: protein assay; conditions: concentration not given here
Tubulin (Bos taurus) [3] = target: T2, Tubulin (Bos taurus); experiment: Compound was evaluated for inhibition of colchicine binding to tubulin in experiment II.; type: protein assay; conditions: concentration not given here
Tubulin [4] = target: T1, Tubulin; experiment: Effective concentration for enhancement of tubulin assembly rate was determined; type: functional

Question: `CCOc1cc2c(cc1O)CC[C@@H]1[C@@H]2CC[C@]2(C)[C@@H](O)CC[C@@H]12` was tested. Which MGM (Cell line) did it give?
Answer: Its MGM is 0.076 µM.

Question: And the IC50 (Tubulin [1])?
Answer: Its IC50 is 0.66 µM.

Question: And the inhibition (Tubulin (Bos taurus) [2])?
Answer: The inhibition was 51%.

Question: What about the inhibition (Tubulin (Bos taurus) [3]) of the same compound?
Answer: Its inhibition is 87%.

Question: How did the MGM (Cell line) turn out when `CCOc1cc2c(cc1O)/C(=N\OC)C[C@@H]1[C@@H]2CC[C@]2(C)[C@@H](O)CC[C@@H]12` was run?
Answer: The MGM was 0.27 µM.

Question: How did the MGM (Cell line) turn out when `CCOc1cc2c(cc1O)/C(=N/O)CCC1C2CC[C@@]2(C)C1CC[C@@H]2O` (some centres undefined) was run?
Answer: The MGM was 51.3 µM.

Question: What about the IC50 (Tubulin [1]) of the same compound?
Answer: The IC50 was 57 µM.

Question: Which EC50 (Tubulin [4]) does the source give for `CCOc1cc2c(cc1OC(C)=O)C(=O)C[C@@H]1[C@@H]2CC[C@]2(C)[C@@H](OC(C)=O)CC[C@@H]12` here?
Answer: Its EC50 is > 400 µM.

Question: For `CCOc1cc2c(cc1O)C/C(=N\NS(=O)(=O)c1ccc(C)cc1)CC1C2CC[C@@]2(C)C1CC[C@@H]2O` (some centres undefined), which MGM (Cell line) is on record?
Answer: The MGM was 15.5 µM.

Question: And the IC50 (Tubulin [1])?
Answer: The IC50 was 80 µM.

Question: What does the source list for `CCOc1cc2c(cc1OC(C)=O)C(=O)CCC1C2CC[C@@]2(C)C1CC[C@@H]2OC(C)=O` (some centres undefined)?
Answer: MGM (Cell line): >100 µM; IC50 (Tubulin [1]): 5.5 µM

Question: Which EC50 (Tubulin [4]) does the source give for `CC(=O)O[C@H]1C(=O)[C@@]2(C)[C@H]([C@H](OC(=O)c3ccccc3)[C@]3(O)C[C@H](OC(=O)[C@H](O)[C@@H](NC(=O)c4ccccc4)c4ccccc4)C(C)=C1C3(C)C)[C@]1(OC(C)=O)CO[C@@H]1C[C@@H]2O` [PACLITAXEL] here?
Answer: The EC50 was 0.83 µM.

Question: `CCOc1cc2c(cc1OC(C)=O)C(=O)CCC1C2CC[C@@]2(C)C1CC[C@@H]2O` (some centres undefined) was tested. Which EC50 (Tubulin [4]) did it give?
Answer: The EC50 was 360 µM.

Question: For `CCOc1cc2c(cc1O)C/C(=N\O)CC1C2CC[C@@]2(C)C1CC[C@@H]2O` (some centres undefined), which MGM (Cell line) is on record?
Answer: Its MGM is 42.7 µM.

Question: And the IC50 (Tubulin [1])?
Answer: Its IC50 is 99 µM.

Question: For `CCOc1cc2c(cc1O)C(=O)CCC1C2CC[C@@]2(C)C1CC[C@@H]2OC(C)=O` (some centres undefined), which EC50 (Tubulin [4]) is on record?
Answer: The EC50 was 8.2 µM.

Question: How did the EC50 (Tubulin [4]) turn out when `CCOc1cc2c(cc1OC(C)=O)/C(=N/OC)CCC1C2CC[C@@]2(C)C1CC[C@@H]2OC(C)=O` (some centres undefined) was run?
Answer: The EC50 was > 200 µM.

Question: What does the source list for `CCOc1cc2c(cc1O)[C@H](NC(C)=O)CC[C@H]1C3CC[C@H](O)[C@@]3(C)CC[C@H]21` (some centres undefined)?
Answer: MGM (Cell line): 90.4 µM; EC50 (Tubulin [4]): > 200 µM

Question: For `CCOc1cc2c(cc1O)CCCC1C2CC[C@@]2(C)C1CC[C@@H]2O` (some centres undefined), which MGM (Cell line) is on record?
Answer: Its MGM is 2.48 µM.

Question: And the IC50 (Tubulin [1])?
Answer: The IC50 was 0.97 µM.

Question: And the inhibition (Tubulin (Bos taurus) [2])?
Answer: Its inhibition is 56%.

Question: For `CCOc1cc2c(cc1O)C(=O)C[C@@H]1[C@@H]2CC[C@]2(C)[C@@H](O)CC[C@@H]12`, which MGM (Cell line) is on record?
Answer: The MGM was 0.13 µM.

Question: And the IC50 (Tubulin [1])?
Answer: Its IC50 is 3 µM.

Question: And the inhibition (Tubulin (Bos taurus) [2])?
Answer: Its inhibition is 19%.

Question: For `CCOc1cc2c(cc1O)[C@@H](NC(C)=O)CCC1C2CC[C@@]2(C)C1CC[C@@H]2O` (some centres undefined), which MGM (Cell line) is on record?
Answer: The MGM was 7 µM.

Question: What about the IC50 (Tubulin [1]) of the same compound?
Answer: Its IC50 is 6.9 µM.

Question: `CCOc1cc2c(cc1OC(C)=O)CC(=O)CC1C2CC[C@@]2(C)C1CC[C@@H]2OC(C)=O` (some centres undefined) was tested. Which EC50 (Tubulin [4]) did it give?
Answer: Its EC50 is > 400 µM.

Question: Which results are given for `CCOc1cc2c(cc1O)C(=O)CCC1C2CC[C@@]2(C)C1CC[C@@H]2O` (some centres undefined)?
Answer: MGM (Cell line): 14.4 µM; IC50 (Tubulin [1]): 130 µM

Question: For `CCOc1cc2c(cc1O)/C(=N/OC)CCC1C2CC[C@@]2(C)C1CC[C@@H]2O` (some centres undefined), which MGM (Cell line) is on record?
Answer: Its MGM is 24 µM.

Question: And the IC50 (Tubulin [1])?
Answer: Its IC50 is 30 µM.

Question: With `CCOc1cc2c(cc1O)CC(=O)CC1C2CC[C@@]2(C)C1CC[C@@H]2O` (some centres undefined) as the compound, how does the MGM (Cell line) read?
Answer: Its MGM is 11.5 µM.

Question: And the IC50 (Tubulin [1])?
Answer: The IC50 was 8.1 µM.

Question: Which results are given for `COc1cc2c(cc1O)CC[C@@H]1[C@@H]2CC[C@]2(C)[C@@H](O)CC[C@@H]12` [2-METHOXYESTRADIOL]?
Answer: MGM (Cell line): 1.3 µM; IC50 (Tubulin [1]): 1.4 µM; inhibition (Tubulin (Bos taurus) [2]): 19%; inhibition (Tubulin (Bos taurus) [3]): 60%

Question: Which MGM (Cell line) does the source give for `CCOc1cc2c(cc1OC(C)=O)CCCC1C2CC[C@@]2(C)C1CC[C@@H]2OC(C)=O` (some centres undefined) here?
Answer: The MGM was 14.5 µM.

Question: And the IC50 (Tubulin [1])?
Answer: The IC50 was > 400 µM.

Question: `CCOc1cc2c(cc1O)/C(=N\O)C[C@@H]1[C@@H]2CC[C@]2(C)[C@@H](O)CC[C@@H]12` was tested. Which MGM (Cell line) did it give?
Answer: Its MGM is 0.079 µM.

Question: With `CCOc1cc2c(cc1O)C=CCC1C2CC[C@@]2(C)C1CC[C@@H]2O` (some centres undefined) as the compound, how does the MGM (Cell line) read?
Answer: Its MGM is 1.32 µM.

Question: What about the IC50 (Tubulin [1]) of the same compound?
Answer: Its IC50 is 0.85 µM.
